Laboratory results from ChEMBL document CHEMBL1158393, “Synthesis, characterization and in vitro antiproliferative activities of new 13-cis-retinoyl ferrocene derivatives” (Eur J Med Chem, 2009).

How the values were obtained:
Format in all cases: functional, cell-based
[1] = Cytotoxicity against human Bel7404 cells after 24 hrs by MTT assay; details: BEL-7404, 24 h
A549 = assay: Cytotoxicity against human A549 cells after 24 hrs by MTT assay; details: A549, 24 h
[2] = Cytotoxicity against human Tca cells after 24 hrs by MTT assay

CC1=C(/C=C/C(C)=C/C=C/C(C)=C\C(=O)O)C(C)(C)CCC1 [ISOTRETINOIN]
IC50 [1]: 42.6 µM | IC50 (A549): 35.8 µM | IC50 [2]: 39.7 µM
